Source: publication PMC8370201, “Amaryllidaceae Alkaloid Cherylline Inhibits the Replication of Dengue and Zika Viruses” (Antimicrobial Agents and Chemotherapy, 2021)
Entries after “also recorded” stand apart in the source; their conditions may differ. Where two headings read alike, the source gives them in different places.

Tests used:
Huh7 cells = assay: XTT cytotoxicity assay in Huh7 cells; format: cell-based, human; conditions: 0.4 to 400 μM, 72 hours
Method: Cytotoxicity properties were titrated by metabolism monitoring using the XTT [2,3-bis-(2-methoxy-4-nitro-5-sulfophenyl)-2H-tetrazolium-5-carboxanilide] assay kit (Roche, Millipore Sigma), as described before ([24]). Briefly, Huh7 cells were seeded at 10 × 10^3 cells per well in 96-well plates. […] After 72 h of incubation, medium was replaced by phenol-free DMEM (Wisent) containing 0.3 mg/ml XTT, and cells were incubated for 4 h. Absorbance was measured at 450nm using a microplate spectrophotometer (Synergy H1, Biotek). Treatment conditions with 0.5% DMSO were used as the reference control. The percentage of cell viability was calculated at each concentration.

[1] = Cell viability (ATP, Cell-Titer GLO) in Huh7.5 cells; format: cell-based; conditions: human
Method: (§1) Where indicated for Huh7.5 and Vero E6 cells and PBMCs, cell viability was measured by monitoring of cellular ATP levels using the Cell-Titer GLO assay kit (Promega). Briefly, 10× 10^3 to 20 × 10^3 cells in 50 to 100 μl were seeded in 48-well or 96-well plates and cultured overnight. AAs were added at the designated concentrations for 24 or 48 h, as specified in the text. Then, 50 to 100 μl of room temperature Cell-Titer GLO reagent was added in each well to room temperature-equilibrated cell plates. Plates were rocked for 2 min and rested for 10 min, and the luminescence signal was measured using a microplate spectrophotometer (Biotek Synergy H1 or Tecan Spark multimode microplate reader). Viability was expressed as a fold change calculated using the value of DMSO-treated cells at each concentration; for each AA and CC50, values were determined.

DENV2 16881s = assay: Plaque assay, infectious titers of WT DENV2 16881s from Huh7.5 cells; format: cell-based, dengue virus (DENV); conditions: treated 2 hpi, supernatant 48 h later; for production of DENV infectious particles (words): AAs 50 μM
Method: Huh7.5 cells were infected with DENV 16881s, ZIKV H/PF/2013, or ZIKV MR766 (MOI, 0.1) or left uninfected. […] Supernatants were harvested 2 days pi, and PFU were determined by plaque assay on VeroE6 cells. Cells incubated overnight (2 × 10^5 cells/well in 24-well plates) were infected with 10-fold serially diluted virus-containing supernatants for 2 h at 37°C. Inoculum was then replaced with MEM (Life Technologies) containing 1.5% carboxymethylcellulose (Millipore-Sigma). ZIKV- and DENV-infected cells were incubated for 5 and 7 days, respectively. One volume of 10% formaldehyde was added to the cells for fixation. Two hours later, cells were washed with tap water and stained with a 1% crystal violet/10% ethanol solution for 30 min. Wells were rinsed with tap water, and the number of plaques were counted to calculate virus titers.

ZIKV H/PF/2013 [2] = assay: Plaque assay, infectious titers of WT ZIKV H/PF/2013 from Huh7.5 cells; format: cell-based, Zika virus (ZIKV); conditions: treated 2 hpi, supernatant 48 h later
ZIKV MR766 = assay: Plaque assay, infectious titers of WT ZIKV MR766 from Huh7.5 cells; format: cell-based, Zika virus (ZIKV); conditions: treated 2 hpi, supernatant 48 h later
[3] = test system: VSV-G pseudotyped HIV-1GFP; format: cell-based
[4] = test system: interferon-sensitive response element (ISRE) transcription; assay: Type I IFN activation assay (ISRE-luciferase) in LL171 cells; format: cell-based, Murine; conditions: 50 μM, 24 h
Method: In vitro type I IFN activation was measured in LL171 cells using the luciferase assay system kit (Promega). Briefly, 200 μl LL171 reporter cells (L929 cells expressing an IFN stimulated response element [ISRE]-luciferase) were seeded at 1.5 × 10^4 cells/well in 96-well plates and cultured for 16 h. Medium was replaced with DMEM containing cherylline for 24 h. Supernatant was removed, cells were rinsed with PBS, and lysis buffer was added (luciferase assay reagent; Promega). Then, cells were scraped and transferred into opaque 96-well plates. LAR (luciferase assay reagent; Promega) was added to each well, and luminescence was measured at 480 nm using a microplate spectrophotometer (Synergy H1). 5,6-dimethylxanthenone-4-acetic acid (DMXAA, 20 μg/ml) was used as a positive control. All assays were performed in triplicate.

DENVGFP [5] = assay: Time-of-drug-addition and -removal assays, DENVGFP in Huh7 cells; format: cell-based, dengue virus (DENV); conditions: for infection after removal of compound 2 hpi vs continuous treatment: Huh7, treated 2 h prior to infection, removed 2 hpi, microscopy
Method: For the time-of-drug-addition assay, at the time of infection, AAs were added in wells corresponding to 0 h. At 2 hpi, viral inoculum was removed from every well, and AAs were added back to wells corresponding to 0 h and 2 h. At 4, 7, 12, and 24 hpi, AAs or DMSO diluted in DMEM was added to the appropriate wells. After 72 h, cells were trypsinized and fixed in 4% formaldehyde to measure the percentage of infected cells on an FC500 MPL cytometer. Alternatively, pictures of Hoechst 33342-stained cells were acquired on an Axio Observer microscope. All assays were performed in triplicate.
At 2 hpi, plates were washed, and medium was replaced to remove remaining viruses in the supernatant. AAs were added back to all wells, except the ones corresponding to 2 h of treatment, in which fresh medium exclusive of any AA was added. Accordingly, after 4, 7, and 12 h of infection, the supernatant was replaced by fresh medium in corresponding wells. After 72 h of incubation, results were acquired as for the time-of-drug-addition assay. All assays were performed in triplicate.

DENVGFP and DENV2 16881s = assay: Viral RNA levels by RT-qPCR, DENV; format: cell-based, dengue virus (DENV); conditions: 12 and 24 h; DENVGFP MOI 0.5 Huh7 25 μM; DENV2 16881s MOI 2 Huh7.5 50 μM
ZIKV H/PF/2013 [6] = assay: Viral RNA levels by RT-qPCR, ZIKV; format: cell-based, Zika virus (ZIKV); conditions: 12 and 24 h; MOI 2, Huh7.5, 50 μM
DENVR2A [7] = conditions: CC50/EC50, Huh7.5
ZIKVR2A [8] = conditions: for SI ZIKVR2A (therapeutic selectivity index): CC50/EC50, Huh7.5
DENVR2A [9] = assay: microbe, parasite or virus in culture; conditions: Dengue virus, Huh7.5, read-out: EC50 (μM) for DENVR2A
ZIKVR2A [10] = assay: microbe, parasite or virus in culture; conditions: Zika virus, Huh7.5, read-out: EC50 (μM) for ZIKVR2A, Huh7.5 cells, luciferase at 48 hpi
DENVGFP [11] = assay: DENVGFP reporter virus infection of Huh7 cells (flow cytometry / microscopy); conditions: for DENVGFP infected cells by microscopy: MOI 0.15, 72 hpi; for anti-DENV activity in screening (GFP microscopy, words): Huh7, treated 2 h before DENVGFP MOI 0.15, 72 hpi, at the chosen concentration
DENVGFP [12] = assay: DENVGFP infection of PBMCs with antibody-dependent enhancement (flow cytometry); conditions: 30 μM
ZIKV NS5 RdRp = test system: ZIKV NS5 RdRp; parameters: method as in PMID 32452420; conditions: 100 μM; cited from earlier work
West Nile virus NS5 = test system: West Nile virus NS5; parameters: method as in PMID 19062063; conditions: cited from earlier work
PBMCs = assay: Cytotoxicity in PBMCs (ATP); format: cell-based, human; conditions: 48 h posttreatment, cherylline 30 μM
Method: as §1

DENV = test system: DENV; parameters: method as in PMID 20496087; conditions: read-out: EC50, inhibition of DENV; cited from earlier work
[13] = added at 24 hpi, cherylline 50 μM, NITD008 10 μM
[14] = Huh7.5 cells, Huh7.5, ATP, 48 h posttreatment, read-out: CC50

| Compound | cytotoxic activity of AAs (Huh7 cells) | decrease in ZIKV H/PF/2013 viral titer (ZIKV H/PF/2013 [2]; AAs 50 μM) | infection after removal of compound 2 hpi vs continuous treatment (DENVGFP [5]) | time of drug addition: effect on DENVGFP-infected Huh7 cells 72 hpi (DENVGFP [5]; [13]) | SI DENVR2A (therapeutic selectivity index) (DENVR2A [7]) | SI ZIKVR2A (therapeutic selectivity index) (ZIKVR2A [8]) | EC50 (DENVR2A [9]) | EC50 (ZIKVR2A [10]) | CC50 at 48 h [1, 14] | production of DENV infectious particles (words) (DENV2 16881s) | production of ZIKV MR766 infectious particles (words) (ZIKV MR766) | anti-DENV activity in screening (GFP microscopy, words) (DENVGFP [11]) | further results |
| --- | --- | --- | --- | --- | --- | --- | --- | --- | --- | --- | --- | --- | --- |
| COc1cc2c(cc1O)CN(C)C[C@H]2c1ccc(O)cc1 [Cherylline, cherylline] | cytotoxic | 100 fold | restored virus replication completely | lost one-third of its inhibitory potential | >28 | >12.3 | 8.8 µM | 20.3 µM | – | – | – | – | CC50 at 48 h [1]: > 250 µM; decrease in DENV 16881s viral titers (DENV2 16881s; 50 μM): 17 fold; decrease in WT ZIKV MR766 replication (ZIKV MR766; AAs 50 μM): 8 fold; decrease in ZIKV MR766 viral titer (ZIKV MR766; AAs 50 μM): 88%; HIV-1 infection [3]: no effect; also recorded: did not affect HIV-1 infection; also recorded: did not detect any antiretroviral activity; type I interferon (IFN) induction, ISRE transcription [4]: did not trigger a significant amount of type I interferon; time of drug addition: effect on DENVGFP-infected Huh7 cells 72 hpi (DENVGFP [5]; cherylline 50 μM, added at 12 hpi): some cherylline antiviral activity was lost; time of drug addition: effect on DENVGFP-infected Huh7 cells 72 hpi (DENVGFP [5]; cherylline 50 μM, added between 0 and 7 hpi): entirely blocked viral replication; time of drug removal: inhibition of DENVGFP replication (DENVGFP [5]; cherylline 50 μM, present for the first 12 h): successfully impaired DENV replication; time of drug removal: inhibition of DENVGFP replication (DENVGFP [5]; cherylline 50 μM, removed at 2, 4, or 7 hpi): inhibition of viral replication was lost; viral RNA levels (RT-qPCR) (DENVGFP and DENV2 16881s): decrease in viral RNA levels; viral RNA levels (RT-qPCR) (ZIKV H/PF/2013 [6]): decrease in viral RNA levels; EC50 (ZIKVR2A [8]; read-out: EC50 (μM) for ZIKVR2A, Huh7.5 cells, luciferase at 48 hpi): 20.3 µM; EC50 (DENVGFP [11]; Dengue virus, Huh-7, read-out: EC50, DENVGFP infection): 8 µM; DENVGFP infected cells by microscopy (DENVGFP [11]; Huh7, 0.4 μM): no apparent difference with the control; DENVGFP infected cells by microscopy (DENVGFP [11]; Huh7, 2 μM): most of the cells were infected; DENVGFP infected cells by microscopy (DENVGFP [11]; Huh7, 10 μM): Several foci of infected cells became visible; DENVGFP infected cells by microscopy (DENVGFP [11]; Huh7, 50 μM): no detectable infection; also recorded: no infected cells were observed; median GFP+ cells (DENVGFP [12]; MOI 2, 72 hpi): 0.1%; decrease in the percentage of GFP+ cells (DENVGFP [12]; MOI 2, 72 h): 5.3 fold |
| O=c1c2cc3c(cc2c2cccc4ccn1c42)OCO3 [Hippadine, hippadine] | cytotoxic | 3 fold | restored virus replication completely | – | 2.38 | 1.54 | 73.8 µM | 114 µM | 176 µM | little effect | little effect | moderate | production of DENV infectious particles (words) (DENV2 16881s; listed as hippadine): no effects on DENV production; decrease in ZIKV H/PF/2013 viral titers (ZIKV H/PF/2013 [2]; AAs 50 μM): 70%; ZIKVR2A replication (ZIKVR2A [8]; Huh7.5 cells): did not significantly impact ZIKVR2A replication |
| O[C@H]1[C@H]2c3cc4c(cc3CN3CCC(=C[C@@H]1O)[C@H]23)OCO4 [Lycorine, lycorine] | cytotoxic | – | – | – | 90.6 | 35.4 | 0.16 µM | 0.41 µM | 14.5 µM | – | – | sharp decrease in DENV-GFP-infected cells | inhibition of ZIKV NS5 RdRp activity in vitro (ZIKV NS5 RdRp): 80%; effect on West Nile virus NS5 (West Nile virus NS5): no effect |
| C#C[C@@]1(O)[C@H](O)[C@@H](CO)O[C@H]1n1ccc2c(N)ncnc21 [NITD008, reference compound] | – | – | – | Low levels of infection rose | – | – | – | – | – | completely hindered the production of infectious particles | completely hindered the production of infectious particles | – | production of ZIKV H/PF/2013 infectious particles (words) (ZIKV H/PF/2013 [2]): completely hindered the production of infectious particles; time of drug addition: effect on DENVGFP-infected Huh7 cells 72 hpi (DENVGFP [5]; NITD008 10 μM, added at 0, 2, 4, 7, or 12 hpi): abrogated GFP expression; cytotoxicity in PBMCs (PBMCs): cytotoxic in PBMCs |
| COc1cc2c(cc1OC)-c1cc3ccc(OC)c(OC)c3c[n+]1CC2 [Palmatine] | – | – | – | – | – | – | – | – | – | – | – | – | EC50 (DENV): 26.4 µM |
